These results are taken from ChEMBL document CHEMBL1681717, “Design and synthesis of a novel, orally active, brain penetrant, tri-substituted thiophene based JNK inhibitor” (Bioorg Med Chem Lett, 2011).

Data set [1] can be described thus: Oxidative metabolic stability in human liver microsomes assessed as compound remaining at 5 uM after 120 mins. It is filed as ADME, Microsome. The following applies: read-out: Stability. (In general: Liver microsomes are vesicles of endoplasmic reticulum, rich in cytochrome P450 enzymes.)
Data set [2] can be described thus: Oxidative metabolic stability in mouse liver microsomes assessed as compound remaining at 5 uM after 120 mins. The following applies: read-out: Stability. The format is ADME, Microsome.
The target of data set [3] is Mitogen-activated protein kinase 8 (Homo sapiens, UniProt P45983). Kind of data set: Inhibition of recombinant JNK1 after 60 mins by TR-FRET assay. In general terms: Time-resolved FRET reads energy transfer from a long-lived donor to a nearby acceptor.
Chain of Mitogen-activated protein kinase 8 (P45983 whole entry): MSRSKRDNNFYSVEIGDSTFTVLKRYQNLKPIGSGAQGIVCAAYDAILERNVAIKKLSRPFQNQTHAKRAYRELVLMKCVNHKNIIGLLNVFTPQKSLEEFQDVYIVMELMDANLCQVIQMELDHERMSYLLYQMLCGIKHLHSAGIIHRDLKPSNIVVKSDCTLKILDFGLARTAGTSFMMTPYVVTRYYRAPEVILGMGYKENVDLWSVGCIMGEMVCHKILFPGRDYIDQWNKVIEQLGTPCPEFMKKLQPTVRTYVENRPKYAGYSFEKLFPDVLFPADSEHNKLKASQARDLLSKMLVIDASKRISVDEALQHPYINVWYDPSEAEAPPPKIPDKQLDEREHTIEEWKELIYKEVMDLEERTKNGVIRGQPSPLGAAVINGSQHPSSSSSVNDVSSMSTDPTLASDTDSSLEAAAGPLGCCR
The target of data set [4] is Mitogen-activated protein kinase 10 (Homo sapiens, UniProt P53779). Kind of data set: Inhibition of recombinant JNK3 after 60 mins by TR-FRET assay.
Chain of Mitogen-activated protein kinase 10 (P53779 whole entry): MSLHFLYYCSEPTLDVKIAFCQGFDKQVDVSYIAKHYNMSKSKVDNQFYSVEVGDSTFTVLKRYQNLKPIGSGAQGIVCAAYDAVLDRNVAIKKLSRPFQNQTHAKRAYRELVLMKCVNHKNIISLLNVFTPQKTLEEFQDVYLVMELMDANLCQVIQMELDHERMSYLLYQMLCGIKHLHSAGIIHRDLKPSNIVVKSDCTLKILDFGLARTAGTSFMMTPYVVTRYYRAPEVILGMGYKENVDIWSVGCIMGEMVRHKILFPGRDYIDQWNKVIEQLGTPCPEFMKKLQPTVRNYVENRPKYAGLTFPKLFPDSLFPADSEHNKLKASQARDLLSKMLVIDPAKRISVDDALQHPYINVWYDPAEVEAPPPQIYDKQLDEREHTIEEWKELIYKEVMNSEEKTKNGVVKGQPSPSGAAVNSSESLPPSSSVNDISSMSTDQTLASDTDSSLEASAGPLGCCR
Data set [5] addresses Mitogen-activated protein kinase 9 (Homo sapiens, UniProt P45984). Kind of data set: Inhibition of recombinant JNK2 after 60 mins by TR-FRET assay.
Data set [6] concerns MDR1. Kind of data set: Apparent permeability of the compound from apical to basolateral direction in MDCK2 cells expressing MDR1. The format is ADME, cell-based, Canis lupus familiaris, MDCK-II. Particulars: dog, MDCK-MDR1.
The subject of data set [7] is MDR1. Kind of data set: Efflux ratio of permeability from basolateral to apical side over apical to basolateral side in MDCK2 cells expressing MDR1. The following applies: dog, MDCK-MDR1. The format is ADME, cell-based, Canis lupus familiaris, MDCK-II.
For data set [8], the target named is Mitogen-activated protein kinase 1 (Homo sapiens, UniProt P28482). Kind of data set: Inhibition of recombinant ERK2 after 60 mins by TR-FRET assay.
Chain of Mitogen-activated protein kinase 1 (P28482 whole entry): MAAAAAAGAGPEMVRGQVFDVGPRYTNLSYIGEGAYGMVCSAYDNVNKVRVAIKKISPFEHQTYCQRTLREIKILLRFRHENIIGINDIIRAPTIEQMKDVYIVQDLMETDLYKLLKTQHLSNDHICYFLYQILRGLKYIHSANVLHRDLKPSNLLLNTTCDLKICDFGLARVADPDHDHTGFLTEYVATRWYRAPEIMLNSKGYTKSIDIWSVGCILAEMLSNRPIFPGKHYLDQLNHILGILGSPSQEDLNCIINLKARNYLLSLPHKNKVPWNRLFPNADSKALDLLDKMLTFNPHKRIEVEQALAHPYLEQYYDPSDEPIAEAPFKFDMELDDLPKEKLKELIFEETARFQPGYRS
The target of data set [9] is Mitogen-activated protein kinase 14 (Homo sapiens, UniProt Q16539). The data set is described as follows: Inhibition of recombinant p38alpha after 60 mins by TR-FRET assay.
Chain of Mitogen-activated protein kinase 14 (Q16539 whole entry): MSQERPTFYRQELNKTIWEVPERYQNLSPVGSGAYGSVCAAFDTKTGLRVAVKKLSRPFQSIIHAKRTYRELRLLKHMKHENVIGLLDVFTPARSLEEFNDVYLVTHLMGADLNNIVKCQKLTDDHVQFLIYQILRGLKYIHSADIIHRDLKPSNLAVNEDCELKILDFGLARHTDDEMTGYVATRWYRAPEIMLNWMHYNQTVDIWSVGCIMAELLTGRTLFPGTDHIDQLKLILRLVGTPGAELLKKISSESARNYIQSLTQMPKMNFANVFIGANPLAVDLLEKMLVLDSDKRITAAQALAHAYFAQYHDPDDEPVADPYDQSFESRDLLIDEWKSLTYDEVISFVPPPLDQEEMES
Data set [10] in a line: Solubility of the compound in hank's buffered salt solution. The format is physicochemical.

In general, IC50 refers to the concentration needed to halve the response being measured. Broadly, the Papp A→B is how fast a substance crosses the layer from the apical side. Broadly, the efflux ratio is a quotient of directional permeabilities that is used to spot active efflux. For orientation: solubility means the concentration that dissolves in the medium under given conditions.

Chain of Mitogen-activated protein kinase 9 (P45984 whole entry): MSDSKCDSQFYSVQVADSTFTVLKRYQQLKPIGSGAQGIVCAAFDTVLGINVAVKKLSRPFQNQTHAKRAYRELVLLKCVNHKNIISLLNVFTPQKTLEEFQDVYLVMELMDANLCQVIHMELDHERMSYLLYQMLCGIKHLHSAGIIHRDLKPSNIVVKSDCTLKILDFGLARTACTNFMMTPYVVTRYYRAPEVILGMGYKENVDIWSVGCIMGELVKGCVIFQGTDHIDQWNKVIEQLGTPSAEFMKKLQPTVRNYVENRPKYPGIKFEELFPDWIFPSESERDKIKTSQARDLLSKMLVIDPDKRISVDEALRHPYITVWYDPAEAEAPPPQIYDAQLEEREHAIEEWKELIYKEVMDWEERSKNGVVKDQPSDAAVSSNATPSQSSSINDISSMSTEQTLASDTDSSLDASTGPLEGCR

As for `N#Cc1csc(NC(=O)Cc2cccc3cnccc23)c1-c1ncn[nH]1`, the remaining at 2 h, 5 µM in data set [1] stood at 62%; in [2], 48%. In addition, the IC50 in data set [3] is 11 nM; in data set [4], 7 nM; in data set [5] it was 26 nM; in data set [8], over 50 µM; in data set [9], over 50 µM. The Papp A→B in the data set on MDR1 [6] was determined as 13.3 ×10⁻⁶ cm/s. Besides, the efflux ratio in the data set with MDR1 [7] came out at 4.6.
Take `COC(=O)c1c(C)csc1NC(=O)Cc1ccc(OCCCn2ccnc2)cc1`: the results for the IC50 in [3], in [4] and in data set [5] were 597 nM, 504 nM and 4520 nM, respectively.
For `Cc1csc(NC(=O)CN2C(=O)CCc3ccccc32)c1-c1ncn[nH]1`, the remaining at 2 h, 5 µM in [1] and in data set [2] was 0% throughout. Also, the IC50 in data set [3] is 32 nM; in [5], 31 nM; in data set [8], over 50 µM; in [9], over 50 µM. Also, the Papp A→B in the data set with MDR1 [6] came out at 14.8 ×10⁻⁶ cm/s. Further, the efflux ratio with MDR1 [7] stood at 3.2.
For the compound `CCOC(=O)c1c(C2CC2)csc1NC(=O)Cc1ccc(OC)cc1`, the IC50 was found to be 15600 nM in data set [3], 9620 nM in [4] and 6290 nM in data set [5].
For the compound `O=C(CN1C(=O)CCc2ccccc21)Nc1scc(Cl)c1-c1ncn[nH]1`, the remaining at 2 h, 5 µM was 20% in data set [1] and 0% in data set [2]. Moreover, the IC50 in data set [3] was 4 nM; in data set [4], 5 nM; in [5] it was 9 nM; in data set [8], over 50 µM; in data set [9] it was over 50 µM. Moreover, the Papp A→B in the data set with MDR1 [6] was determined as 23.3 ×10⁻⁶ cm/s. Moreover, the efflux ratio with MDR1 [7] was determined as 0.9.
In the case of `O=C(Cc1cccc2ncccc12)Nc1scc(Cl)c1-c1ncn[nH]1`, the IC50 in data set [3] was 15 nM; in [4], 18 nM; in data set [5], 42 nM; in data set [8], over 50 µM; in data set [9] it was over 50 µM.
For `N#Cc1csc(NC(=O)CN2C(=O)CCc3ccccc32)c1-c1ncn[nH]1`, the remaining at 2 h, 5 µM is 39% in data set [1] and 37% in [2]. Besides, the IC50 is 9 nM in data set [3]; 6 nM in [4]; 8 nM in data set [5]; over 50 µM in data set [8]; over 50 µM in data set [9]. In the data set on MDR1 [6], the Papp A→B worked out at 18 ×10⁻⁶ cm/s. In the data set with MDR1 [7], the efflux ratio was 4.1.
Take `Cc1n[nH]c(-c2c(C)csc2NC(=O)Cc2cccc3ncccc23)n1`: the IC50 is 45 nM in [3]; 80 nM in [4]; 81 nM in data set [5]; over 50 µM in [8]; over 50 µM in data set [9].
For `COC(=O)c1c(C)csc1NC(=O)Cc1cccc2ncccc12`, the IC50 in data set [3] was 55 nM; in data set [4], 110 nM; in data set [5], 409 nM.
Regarding `COC(=O)c1c(C)csc1NC(=O)Cc1ccc(OCCCN2CCCC2)cc1`, the half-maximal inhibitory concentration (IC50) worked out at 284 nM in data set [3], 226 nM in [4] and 2570 nM in data set [5].
The corresponding values for `COC(=O)c1c(C)csc1NC(=O)CN1C(=O)CCc2ccccc21` are 78 nM, 125 nM and 703 nM.
`Cc1csc(NC(=O)Cc2cccc3ncccc23)c1-c1ncn[nH]1`: the figures for the remaining at 2 h, 5 µM in [1] and in data set [2] were 46% and 1%, respectively. The IC50 in data set [5] is 125 nM; in data set [8], over 50 µM; in [9], over 50 µM. In addition, the Papp A→B with MDR1 [6] stood at 16.1 ×10⁻⁶ cm/s.
In the case of `O=C(Cc1cccc2ncccc12)Nc1scc(Br)c1-c1ncn[nH]1`, the IC50 was 42 nM in data set [3]; 34 nM in data set [4]; 90 nM in data set [5]; over 50 µM in data set [8]; over 50 µM in [9].
Consider `N#Cc1csc(NC(=O)Cc2cccc3ncccc23)c1-c1nnc[nH]1`, for which the IC50 in data set [3] is 12 nM; in data set [4], 12 nM; in data set [5], 41 nM; in data set [8] it was 35.1 µM; in [9] it was over 50 µM.
In the case of `Cc1nnc(-c2c(C)csc2NC(=O)Cc2ccc(-c3ccncc3)cc2)[nH]1`, the IC50 in data set [4] was 324 nM; in data set [8] it was over 5 µM; in data set [9], over 5 µM.
Regarding `COC(=O)c1c(C)csc1NC(=O)Cc1ccc(OC)cc1`, the IC50 in [3] turned out to be 590 nM; in [4], 700 nM; in [5] it was 3140 nM.
The corresponding values for `COC(=O)c1c(C)csc1NC(=O)Cc1cccc2cnccc12` are 31 nM, 62 nM and 863 nM.
The like results for `CCc1csc(NC(=O)Cc2ccc(OC)cc2)c1C(=O)OC` were, in that order, 19300 nM, 9110 nM and 22500 nM.
The corresponding values for `COC(=O)c1c(C)csc1NC(=O)Cc1cccc2cc[nH]c12` are 686 nM, 1020 nM and 4150 nM.
As to `Cc1n[nH]c(-c2c(C)csc2NC(=O)Cc2ccc(OCCCN3CCCCC3)cc2)n1`, the IC50 in data set [3] was 463 nM; in data set [4], 197 nM; in data set [5], 1620 nM; in data set [8] it was over 5 µM; in data set [9] it was over 5 µM.
For `CCOC(=O)c1c(C(F)(F)F)csc1NC(=O)Cc1ccc(OC)cc1`, the IC50 in data set [3] was 18900 nM; in [4] it was 38800 nM; in data set [5], over 50000 nM.
The like results for `COC(=O)c1c(C)csc1NC(=O)Cc1ccc(OCCCN2CCCCC2)cc1` were, in that order, 295 nM, 99 nM and 613 nM.
As to `C#Cc1csc(NC(=O)Cc2ccc(OC)cc2)c1C(=O)OCC`, the half-inhibitory concentration (IC50) in data set [3] worked out at 1050 nM; in data set [4] it was 3020 nM; in [5], 28400 nM.
For the compound `O=C(Cc1cccc2cnccc12)Nc1scc(Br)c1-c1ncn[nH]1`, the IC50 in data set [3] was 28 nM; in data set [4], 33 nM; in data set [5], 50 nM; in [8] it was over 50 µM; in [9], over 50 µM.
`Cc1n[nH]c(-c2c(C)csc2NC(=O)CN2C(=O)CCc3ccccc32)n1`: the IC50 was 15 nM in data set [3]; 25 nM in data set [4]; 42 nM in data set [5]; over 50 µM in data set [8]; over 50 µM in [9].
Take `Cc1n[nH]c(-c2c(C)csc2NC(=O)Cc2cccc3nccnc23)n1`: the IC50 in [3] was 298 nM; in data set [4], 594 nM; in data set [5], 230 nM; in [8], over 5 µM; in data set [9] it was over 5 µM.
With `O=C(CN1C(=O)CCc2ccccc21)Nc1scc(Br)c1-c1ncn[nH]1`, the IC50 in data set [3] is 25 nM; in data set [4], 28 nM; in [5], 42 nM; in data set [8] it was over 50 µM; in data set [9] it was over 20 µM.
For `COC(=O)c1c(C)csc1NC(=O)Cc1cccc2nccnc12`, the IC50 in [3] was 95 nM; in data set [4] it was 162 nM; in data set [5], 765 nM.
For `COC(=O)c1sccc1NC(=O)Cc1cccs1`, in [10], the solubility came to 72 µM. Besides, the figures for the IC50 in [5], in data set [8] and in data set [9] were 23000 nM, over 50 µM and over 50 µM, respectively. Also, the Papp A→B in the data set on MDR1 [6] was 14.4 ×10⁻⁶ cm/s.
In the case of `COC(=O)c1c(C)csc1NC(=O)Cc1ccc(-c2ccncc2)cc1`, the IC50 is 283 nM in [3], 263 nM in data set [4] and 1840 nM in data set [5].
The corresponding values for `COc1ccc(CC(=O)Nc2scc(C)c2-c2nc(C)n[nH]2)cc1` are 331 nM, 465 nM and 824 nM.
The corresponding values for `CCOC(=O)c1c(C#N)csc1NC(=O)Cc1ccc(OC)cc1` are 350 nM, 310 nM and 930 nM.
